The results in this text go back to patent US8017612B2, “Piperazine compound and use thereof as a HCV polymerase inhibitor” (priority 2006, dated 2011).

Assay [1] has as its target T1, HCV polymerase (NS5B) type 1a (Hepatitis C virus genotype 1a, UniProt P26664).
T1 construct: made in house; host or cells: Escherichia coli (by the 'similar method' of the 1b enzyme)
The experiment in a line: Assay of enzyme (HCV polymerase) inhibitory activity, type 1a enzyme. The class given is biochemical, HCV type 1a (cloned from the blood of patients). The procedure, abridged: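 NS5B Δ47 C-term His6 (type 1a, 1.5 μg/ml); substrate RNA 5 μg/ml; ATP/GTP/CTP 50 μM, UTP 2 μM + [5,6-3H]UTP; Tris pH 7.5, MgCl2 5 mM; 25° C, 60 min. TCA/pyrophosphate stop, GF/B filter, scintillation. IC50 vs no-compound control.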

For assay [2], the target named is T2, HCV polymerase (NS5B) type 1b (Hepatitis C virus genotype 1b, UniProt P26663).
T2 construct: a region encoding NS5B (J Virol 1991 March, 65(3), 1105-13, 544 amino acids after deletion of 47 amino acids on the C-terminal); 6xHis (C); made in house; host or cells: Escherichia coli
Kind of assay: Assay of enzyme (HCV polymerase) inhibitory activity, type 1b enzyme. The class given is biochemical, HCV BK strain (type 1b). A digest of the protocol:
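Rxn: NS5B 1b (BK, ΔC47, His6) 0.5 μg/ml; substrate RNA 5 μg/ml; ATP/GTP/CTP 50 μM, UTP 2 μM + [5,6-3H]UTP; 20 mM Tris pH 7.5, 5 mM MgCl2, 50 mM NaCl, 1 mM EDTA/DTT. 25 °C, 60 min. Stop with TCA/pyrophosphate, filter, scintillation count; IC50 vs. untreated.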

Where [3] appears, read: HCV polymerase inhibitory activity IC50, 1a, type 1a enzyme.
Setting [4] is: HCV polymerase inhibitory activity IC50, 1b, type 1b enzyme.
Where [5] appears, read: HCV polymerase inhibitory activity (IC50), 1a, type 1a enzyme 1.5 μg/ml, 25° C., 60 min.
[6] abbreviates: HCV polymerase inhibitory activity (IC50), 1b, type 1b enzyme 0.5 μg/ml, 25° C., 60 min.

In general, IC50 refers to the concentration that inhibits the measured activity by half. A low value points to inhibition by little substance.

As to `O=C(NCc1ccc(OC(F)(F)F)cc1)[C@H]1CN(c2nc3nc(C(F)(F)F)ncc3s2)CCN1S(=O)(=O)c1ccc(OC(F)(F)F)cc1` [Example 961, (R)-1-(4-trifluoromethoxy-benzenesulfonyl)-4-(5-trifluoromethyl-thiazolo[4,5-d]pyrimidin-2-yl)-piperazine-2-carboxylic acid 4-trifluoromethoxy-benzylamide], the concentration for half-maximal inhibition (IC50) in assay [1] (setting [3]) and in assay [2] (setting [4]) was under 100 nM in each case.

As to `O=C(NCc1ccc(OC(F)(F)F)cc1)[C@H]1CN(c2nc3nc(C4CC4)ncc3s2)CCN1S(=O)(=O)c1ccc(OC(F)(F)C(F)F)cc1` [Example 1020, (R)-4-(5-cyclopropyl-thiazolo[4,5-d]pyrimidin-2-yl)-1-[4-(1,1,2,2-tetrafluoro-ethoxy)-benzenesulfonyl]-piperazine-2-carboxylic acid 4-trifluoromethoxy-benzylamide], the IC50 in assay [1] (setting [3]) and in assay [2] (setting [4]) was under 100 nM each time.

On to `CC(C)c1ccc(CNC(=O)[C@H]2CN(C(=O)Nc3nncs3)CCN2S(=O)(=O)c2ccc(C(F)(F)F)cc2)cc1` [Example 332, (R)-4-(4-trifluoromethyl-benzenesulfonyl)-piperazine-1,3-dicarboxylic acid 3-(4-isopropyl-benzylamide) 1-[1,3,4]thiadiazol-2-ylamide], for which the IC50 in assay [1] (setting [5]) is 100 to 1000 nM; in assay [2] (setting [6]), under 100 nM.

With `COc1ccc(CNC(=O)C2CN(C(C)=O)CCN2S(=O)(=O)c2ccc(C(C)C)cc2)c(OC)c1` (stereo not drawn) [Example 197, 4-acetyl-1-(4-isopropyl-benzenesulfonyl)-piperazine-2-carboxylic acid 2,4-dimethoxy-benzylamide], the half-inhibitory concentration (IC50) in assay [1] (setting [5]) and in assay [2] (setting [6]) was over 1000 nM throughout.

As for `CC(C)c1ccc(CNC(=O)[C@H]2CN(C(=O)Cn3nnnc3CC(=O)O)CCN2S(=O)(=O)c2ccc(C(F)(F)F)cc2)cc1` [Example 312, (1-{2-[(R)-3-(4-isopropyl-benzylcarbamoyl)-4-(4-trifluoromethyl-benzenesulfonyl)-piperazin-1-yl]-2-oxo-ethyl}-1H-tetrazol-5-yl)-acetic acid], the IC50 in assay [1] (setting [5]) is over 1000 nM; in assay [2] (setting [6]), 100 to 1000 nM.

For the compound `CCCc1ccc(S(=O)(=O)N2CCN(C(C)=O)CC2C(=O)NCc2ccc(C(F)(F)F)cc2)cc1` (stereo not drawn) [Example 72, 4-acetyl-1-(4-propyl-benzenesulfonyl)-piperazine-2-carboxylic acid 4-trifluoromethyl-benzylamide], the IC50 is over 1000 nM in assay [1] (setting [5]) and 100 to 1000 nM in assay [2] (setting [6]).

On to `O=C(NCc1ccc(OC(F)(F)F)cc1)[C@H]1CN(c2nc3nc(Cl)ncc3s2)CCN1S(=O)(=O)c1ccc(C(F)(F)F)s1` [Example 947, (R)-4-(5-chloro-thiazolo[4,5-d]pyrimidin-2-yl)-1-(5-trifluoromethyl-thiophene-2-sulfonyl)-piperazine-2-carboxylic acid 4-trifluoromethoxy-benzylamide], for which the IC50 in assay [1] (setting [3]) and in assay [2] (setting [4]) was under 100 nM throughout.

In the case of `CC(C)c1ccc(S(=O)(=O)N2CCN(C(=O)C(C)(C)O)CC2C(=O)NCc2ccc(C(F)(F)F)cc2)cc1` (stereo not drawn) [Example 56, 4-(2-hydroxy-2-methyl-propionyl)-1-(4-isopropyl-benzenesulfonyl)-piperazine-2-carboxylic acid 4-trifluoromethyl-benzylamide], the IC50 in assay [1] (setting [5]) and in assay [2] (setting [6]) was over 1000 nM in each case.

As for `CCC(F)(F)c1ccc(CNC(=O)[C@H]2CN(c3nc(C)c(C(=O)O)s3)CCN2S(=O)(=O)c2ccc(OC(F)(F)F)cc2)cc1` [Example 448, 2-[(R)-3-[4-(1,1-difluoro-propyl)-benzylcarbamoyl]-4-(4-trifluoromethoxy-benzenesulfonyl)-piperazin-1-yl]-4-methyl-thiazole-5-carboxylic acid], the IC50 in assay [1] (setting [5]) and in assay [2] (setting [6]) was under 100 nM each time.
